Patent publication US20030161893A1, “PTPase inhibitors and methods of using the same” (priority 2001, published 2003)

Experiments:
[1] = tested on: TF-1 cells; assay: TF-1 cell proliferation assay; format: cell-based, human
Description: The murine hematopoietic cell line Baf3 was maintained in RPMI 1640 medium supplemented with 10% fetal calf serum (FCS) and murine IL-3 (20 units/ml) as described previously in Damen et al., J. Biol. Chem. 270, 23402 (1995). Human myeloid cell line TF-1 was maintained in RPMI 1640 supplemented with 10% FCS and 40 ng/ml of recombinant human GM-CSF as described previously in Thomassen et al., Clin. Immunol. 95, 85 (2000). For cell proliferation assays, cells were washed in 10% FCS medium twice, resuspended in 10% FCS medium, incubated at 37° C. for 16 hours, and then cultured at 37° C. in 10% FCS medium containing various amounts of cytokines, sodium stibogluconate, or potassium antimonyl tartrate for 3-6 days as indicated. The cell numbers in proliferation assays were determined by an MTT assay or by microscopic cell counting as indicated.

[2] = cited from earlier work
[3] = tested on: Stat1; assay: IFN-alpha-induced Stat1 tyrosine phosphorylation, WM35 cells; format: cell-based, human
Description: (§1) For induction of Stat1 tyrosine phosphorylation by IFN-alpha in the absence or presence of sodium stibogluconate, cells grown in 10% FCS RPMI 1640 medium at 37° C. were stimulated with IFN-alpha (50 u/ml) for various time points and treated with or without sodium stibogluconate for 5 minutes prior to termination by lysing the cells in cold lysis buffer (1% NP-40; 50 mM Tris, pH 7.4; 100 mM NaCl; 1 mM EDTA, 10% glycerol, 10 mM sodium molybdic acid and 4 mM AEBSF).
(§2) Cell lysates were prepared by lysing cells in cold lysis buffer for 30 min and cleared by centrifuging at 14,000 rpm at 4° C. for 15 min. For SDS-PAGE, cell lysates were mixed with equal volume of 2×SDS-PAGE sample buffer, heated at 90° C. for 5 min and separated in 10% SDS-PAGE gels. Cellular proteins in SDS-PAGE gels were transferred to nitrocellulose membrane (Schleicher & Schuell, Keene, N.H.), blocked in 5% milk, probed with antibodies and detected by using an enhanced chemiluminescence kit (ECL, Amersham, Arlington Heights, Ill.).

[4] = tested on: MDA231 cells; assay: Cell proliferation assay (MTT), MDA231 breast cancer cells; format: cell-based, human
Description: (§3) For cell proliferation assays, cells were grown in 10% FCS culture medium containing various amounts of IFNs and/or sodium stibogluconate in 96 well plates and cultured at 37° C. for 3 or 6 days as indicated. The numbers of viable cells in proliferation assays were determined by MTT assays as described in Phatak et al., J. Immunol. 167, 3391 (2001).

[5] = tested on: DS cells; assay: Cell proliferation assay (MTT), DS lymphoma cells; format: cell-based, human; settings: day 3; IFN-alpha 1,000 u/ml
Description: as §3

[6] = tested on: Jak2/Stat5; assay: IL-3-induced Jak2/Stat5 tyrosine phosphorylation in Baf3 cells; format: cell-based, murine
Description: For induction of cellular protein phosphorylation by sodium stibogluconate or pervanadate, Baf3 cells were incubated in 0.1% FCS-RPMI 1640 medium at 37° C. for 16 hours. The cells were then washed twice in RPMI 1640 medium and incubated with sodium stibogluconate or pervanandate (0.1 mM) for various times prior to termination by lysing cells in cold lysis buffer (50 mM Tris, pH 7.4; 150 mM NaCl; 0.2 mM Na3VO4; 20 mm NaF; 1% Nonidet P-40; 2 mM PMSF; 20 μg/ml of Aprotinin and 1 mM of sodium molybdic acid). To determine the effect of sodium stibogluconate or potassium antimonyl tartrate on IL-3-induced Jak/Stat phosphorylation, Baf3 cells were deprived of the growth factor for 16 hours in 0.1% FCS RPMI 1640 medium and then incubated with or without sodium stibogluconate or potassium antimonyl tartrate for 10 minutes. IL-3 was next added to the cell suspension and incubated for various times. The Cells were then harvested and lysed in cold lysis buffer at 4° C. for 45 minutes. Total cell lysates (TCL) were separated in SDS-PAGE gels, blotted onto nitrocellulose membrane (Schleicher & Schuell), probed with specific antibodies and detected using an enhanced chemiluminescence kit (ECL, Amersham, Arlington Heights, Ill.).

[7] = target: T1, SHP-1 (Mus musculus, UniProt P29351); assay: In vitro PTPase assay, GST/SHP-1 fusion protein; format: biochemical
T1 construct: made in house
Description: In vitro PTPase activities were measured using the commercial protein tyrosine phosphatase assay kit (Upstate Biotechnology, Inc. (“UBI”)) following established procedure known to one of skill in the art. […] 100 μl of Malachite Green solution was added and incubated for 5 minutes, and the absorbance at 660 nm was measured after 5 minutes.
The beads were then either subjected to in vitro PTPase assays or washed 3 times in Tris buffer then subjected to in vitro PTPase assays.
Briefly, individual PTPases (0.1 μg/reaction) in 50 μL of PTPase buffer (50 mM Tris, pH 7.4) were incubated at 22° C. for 10 minutes or as indicated in the absence or presence of inhibitory compounds. […] […] […] Relative PTPase activities were calculated based on the formula: (PTPase activity in the presence of an inhibitory compound/PTPase activity in the absence of the compound)×100%. To assess the reversibility of PTPase inhibition, GST fusion proteins of the PTPases bound on glutathione beads (Pharmacia) were pre-incubated with cold Tris buffer (50 mM Tris, pH 7.0) or Tris buffer containing the inhibitor at 4° C. for 30 minutes. The beads were then washed three times in cold Tris buffer or not washed prior to subjecting to in vitro PTPase assays.

[8] = tested on: Stat1; assay: IFN-alpha-induced Stat1 tyrosine phosphorylation, DR cells; format: cell-based, human
Description: as §1, §2

T1 sequence (P29351 whole entry, the tested form may be a part): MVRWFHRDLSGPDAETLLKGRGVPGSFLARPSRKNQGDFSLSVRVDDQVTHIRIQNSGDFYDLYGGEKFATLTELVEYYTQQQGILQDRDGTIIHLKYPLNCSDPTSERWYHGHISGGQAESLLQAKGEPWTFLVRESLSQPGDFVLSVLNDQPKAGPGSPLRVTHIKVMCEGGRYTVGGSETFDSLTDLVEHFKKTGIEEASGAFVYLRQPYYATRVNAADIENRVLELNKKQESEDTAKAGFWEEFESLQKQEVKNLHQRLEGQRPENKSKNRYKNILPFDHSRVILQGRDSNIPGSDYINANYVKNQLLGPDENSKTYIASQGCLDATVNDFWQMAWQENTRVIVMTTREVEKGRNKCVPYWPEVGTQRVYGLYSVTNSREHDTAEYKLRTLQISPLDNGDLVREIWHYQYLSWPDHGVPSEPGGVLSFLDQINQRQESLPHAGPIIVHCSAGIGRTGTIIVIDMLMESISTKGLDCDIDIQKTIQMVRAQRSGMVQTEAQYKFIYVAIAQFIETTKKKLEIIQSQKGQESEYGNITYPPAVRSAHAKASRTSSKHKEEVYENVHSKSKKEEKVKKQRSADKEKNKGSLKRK

O.O.O.O.O.O.O.O.O.O=C([O-])[C@@H]1[O][Sb]2([O-])([O][Sb]34([OH])[O][C@H]([C@H](O)CO)[C@H]([O]3)[C@H](C(=O)[O-])[O]4)[O][C@H]([C@H](O)CO)[C@@H]1[O]2.[Na+].[Na+].[Na+] [sodium stibogluconate]
GM-CSF-induced proliferation of TF-1 cells ([1]; 50 μg/ml, GM-CSF 5-40 ng/ml): augmented | growth inhibition activity of IFN-alpha in TF-1 cells in presence of drug ([1]; 50 μg/ml, with GM-CSF): enhanced | effect of low doses on GM-CSF-induced TF-1 growth ([1]; 12.5-50 μg/ml): no negative effect on GM-CSF-induced cell growth | serum levels at standard dosage for leishmaniasis treatment ([2]; 10-20 mg/kg/day): ≥ 10000 ng/mL | clinical side effects at higher dosages ([2]; human, in vivo): reversible nonspecific ECG changes and renal defects | clinical tolerability at therapeutic dosages ([2]; human, in vivo): well tolerated | IFN-alpha-induced Stat1 tyrosine phosphorylation [3]: failed to enhance | killing of MDA231 cells, single agent ([4]; 50 μg/ml and 100 μg/ml, day 6 culture): killed all cells | IFN-alpha-induced growth inhibition of MDA231 in presence of drug ([4]; day 6): augmented | activity against DS cells [5]: modest activity | phosphotyrosine levels of Jak2 and Stat5 versus cells without drug ([6]; IL-3 stimulated, densitometry): about twice | Jak2/Stat5 tyrosine phosphorylation by drug alone ([6]; no IL-3, 37° C. for 16 hours): failed to induce Jak2/Stat5 tyrosine phosphorylation | dephosphorylation of pNPP by SHP-1, SHP-2 and PTP1B ([7]; pNPP substrate): similarly inhibited | activity against recombinant SHP-1 of HPLC fractions and parental mixture ([7]; parental mixture at Sb concentration of 10 μg/ml): inactivated SHP-1 | reversibility of SHP-1 inhibition by washing ([7]; pre-incubated at 4° C. 30 minutes, beads washed 3 times): not affected by washing | IFN-alpha-induced Stat1 tyrosine phosphorylation versus control ([8]; 10 μg/ml, 30 min post-stimulation): two folds greater than control | Stat1 tyrosine phosphorylation by drug alone ([8]; absence of IFN-alpha): failed to induce Stat1 tyrosine phosphorylation
